# Measurements taken from patent publication US20030144317A1, “Novel benzoylecgonine compositions and methods for producing them” (priority 2001, published 2003).
# Assays:
# [1] = Stability testing (initial 5% w/w water) of the composition produced in Example 4; settings: for relative amount of component at end of reaction (start of the stability trial): composition of Example 4 (initial 5% w/w water; H2O content 4.76 w/w), b61 reads the values as % of the composition
# [2] = Stability testing (absence of water) of the composition produced in Example 3; settings: for relative amount of component at end of reaction (start of the stability trial): composition of Example 3 (no water added; H2O content 0.12 w/w), b61 reads the values as % of the composition
# [3] = composition of Example 4 (initial 5% w/w water), 25° C., 13 days
# [4] = composition of Example 4 (initial 5% w/w water), 40° C., 13 days
# [5] = composition of Example 3 (absence of water), 25° C., 13 days
# [6] = composition of Example 3 (absence of water), 40° C., 13 days
Structure (SMILES),"relative amount of component, stability at 25° C. after 13 days [1, 3]","relative amount of component, stability at 40° C. after 13 days [1, 4]",relative amount of component at end of reaction (start of the stability trial) ([1]; day 16 of reaction at 50° C.),"relative amount of component, stability at 25° C. after 13 days [2, 5]","relative amount of component, stability at 40° C. after 13 days [2, 6]",relative amount of component at end of reaction (start of the stability trial) ([2]; day 15 of reaction at 60° C.),"BME % (w/w), stability at 25° C. after 13 days [1, 3]","BME % (w/w), stability at 40° C. after 13 days [1, 4]","BME % (w/w) at end of reaction (start of the stability trial) ([1]; composition of Example 4 (initial 5% w/w water), day 16 of reaction at 50° C.)","BME % (w/w), stability at 25° C. after 13 days [2, 5]","BME % (w/w), stability at 40° C. after 13 days [2, 6]","BME % (w/w) at end of reaction (start of the stability trial) ([2]; composition of Example 3 (absence of water), day 15 of reaction at 60° C.)"
"O=C(O)c1ccccc1 [BA, benzoic acid]",9.17,9.68,8.99,27.35,28.75,26.05,,,,,,
"CN1[C@H]2CC[C@@H]1[C@@H](C(=O)O)[C@@H](OC(=O)c1ccccc1)C2 [BEc, benzoylecgonine]",64.02,66.31,63.8,3.99,4.28,4.097,,,,,,
"COC(=O)[C@H]1[C@@H](OC(=O)c2ccccc2)C[C@@H]2CC[C@H]1N2C [BME, 3-benzoyloxy-2-carbomethyoxy-8-methyl-8-azabicyclo[3.2.1]octane]",0.84,0.46,0.95,1.19,0.90,1.76,0.07 % (w/w),0.04 % (w/w),0.08 % (w/w),0.08 % (w/w),0.06 % (w/w),0.13 % (w/w)
COC(=O)C1=CC[C@@H]2CC[C@H]1N2C [Methyl Ecd],0.86,0.80,1.00,1.33,1.26,1.42,,,,,,
